Converted amounts (≈) assume the structure as drawn.
Key:
[1] = test system: Mycobacterium smegmatis; test: MIC agar dilution, aerobic and facultative bacteria; settings: Culture # 5171
[2] = test system: B. bivius; test: MIC agar dilution, anaerobic bacteria; type: cell-based; settings: Culture # 2483
[3] = test system: C. ramosum; test: MIC agar dilution, anaerobic bacteria; type: cell-based; settings: Culture # 2482
[4] = test system: E. coli; test: MIC agar dilution, aerobic and facultative bacteria; type: cell-based
[5] = test system: Candida albicans; test: as above; settings: Culture # 3622
[6] = test system: P. magnus; test: MIC agar dilution, anaerobic bacteria; type: cell-based; settings: Culture # 1778
[7] = test system: Providencia stuartii; test: MIC agar dilution, aerobic and facultative bacteria; settings: Culture # 1831
[8] = test system: Streptococcus bovis; test: as above; settings: Culture # 1699
[9] = test system: Clostridium perfringens; test: microbe, parasite or virus in culture; type: cell-based
[10] = test system: B. vulgatus; test: MIC agar dilution, anaerobic bacteria; type: cell-based
[11] = test system: anaerobic pathogens, in particular Clostridium species; test: In vitro activity against anaerobic pathogens, Wilkins-Chalgren agar; type: cell-based; settings: MIC, Table 2
Source text: It has now been established that novel antimicrobial agents may be obtained by chemical modification of tiacumicins, which are antibiotics isolated from the fermentation broth and mycelium of Dactylosporangium aurantiacum subsp. hamdenensis subsp. nov. Tiacumicin antibiotics are described in U.S. Pat. No. 4,918,174 (issued Apr. 17, 1990 and incorporated herein by reference), and comprise the compounds tiacumicin A, tiacumicin B, tiacumicin C, tiacumicin D, tiacumicin E and tiacumicin F. The compounds of the present invention, which are derivatives of the above tiacumicins, are found to have in vitro activity against a variety of bacterial pathogens and in particular against Clostridium when evaluated in an assay utilizing Wilkins-Chalgren agar in anaerobic conditions. It is therefore expected that these compounds will be useful in the treatment of bacterial infections in mammals, and in particular in the treatment of certain instances of colitis.

[12] = test system: Bacteriodes fragilis; test: MIC agar dilution, anaerobic bacteria; type: cell-based
[13] = test system: B. thetaiotaomicron; test: MIC agar dilution, anaerobic bacteria; type: cell-based
[14] = test system: S. pyogenes; test: MIC agar dilution, aerobic and facultative bacteria
[15] = test system: Staphylococcus aureus; test: as above
[16] = test system: Klebsiella pneumoniae; test: as above; settings: Culture # 2518
[17] = test system: Pseudomonas aeruginosa; test: as above
[18] = test system: Enterobacter aerogenes; test: as above; settings: Culture # 1677
[19] = test system: Peptostreptococcus asaccharolyticus; test: MIC agar dilution, anaerobic bacteria; type: cell-based; settings: Culture # 1777
[20] = test system: B. disiens; test: MIC agar dilution, anaerobic bacteria; type: cell-based; settings: Culture # 1763
[21] = test system: Micrococcus luteus; test: MIC agar dilution, aerobic and facultative bacteria
[22] = test system: P. cepacia; test: as above; settings: Culture # 1684
[23] = test system: P. species; test: MIC agar dilution, anaerobic bacteria; type: cell-based; settings: Culture # 1776
[24] = test system: Nocardia asteroides; test: MIC agar dilution, aerobic and facultative bacteria; settings: Culture # 5173
[25] = test system: Acinetobacter calcoaceticus; test: as above; settings: Culture # 1845
[26] = test system: Fusobacterium nucleatum; test: MIC agar dilution, anaerobic bacteria; type: cell-based; settings: Culture # 2478
[27] = test system: Clostridium difficile; test: In vivo hamster model of pseudomembranous Clostridium difficile induced colitis; settings: for % Weight change, Day 22 / % Mortality: days 8-14; for % Mortality: expiring by day 20
Procedure: (Suppression of normal gastrointestinal bacteria by the ciprofloxacin permitted the drug-resistant C. difficile to predominate.) Five additional hamsters were segregated as a noninfected control group.
The infected animals were divided into three groups comprising (a) 10 untreated animals; (b) 15 vancomycin-treated animals (5 each at 20, 10 and 1 mg/kg/day orally on days 8-14); and (c) 10 animals treated with the compound of Example 2 (5 each at 10 and 1 mg/kg/day on days 8-14). The subject animals were monitored for (a) body weight (infected hamsters lose significant body mass), and (b) mortality (percent expiring by day 20).

[28] = test system: Enterococcus faecium; test: MIC agar dilution, aerobic and facultative bacteria; settings: Culture # 1668
[29] = test system: Fusobacterium species; test: MIC agar dilution, anaerobic bacteria; type: cell-based; settings: Culture # 1770
[30] = test system: Propionibacterium acnes; test: MIC agar dilution, anaerobic bacteria; type: cell-based; settings: Culture # 1775

## CCc1c(Cl)c(OC)c(Cl)c(OC)c1C(=O)OC1C(C)OC(OCC2=CC=CCC(O)C(C)=CC(CC)C(OC3OC(C)(C)C(OC(=O)C(C)C)C(O)C3O)C(C)=CC(C)=CCC(C(C)O)OC2=O)C(OC)C1O (centres unmarked) [Example 2, 3"', 5"'-Di-O-methyltiacumicin B]
[1]
  MIC: 1.56 µg/mL (≈ 1.44 µM)
[2]
  MIC: > 2 µg/mL
[3]
  MIC: > 2 µg/mL
[4]; DC-2, Culture # 1674
  MIC: > 100 µg/mL
[4]; H560, Culture # 1675
  MIC: > 100 µg/mL
[4]; Juhl, Culture # 1673
  MIC: > 100 µg/mL
[4]; KNK437, Culture # 1676
  MIC: > 100 µg/mL
[4]; SS, Culture # 2489
  MIC: > 100 µg/mL
[5]
  MIC: > 100 µg/mL
[6]
  MIC: > 2 µg/mL
[7]
  MIC: > 100 µg/mL
[8]
  MIC: > 100 µg/mL
[9]; Culture # 1771
  MIC: 0.06 µg/mL (≈ 0.0552 µM)
[9]; Culture # 1772
  MIC: 0.06 µg/mL (≈ 0.0552 µM)
[9]; Culture # 1773
  MIC: 0.06 µg/mL (≈ 0.0552 µM)
[10]; Culture # 1762
  MIC: > 2 µg/mL
[10]; Culture # 2481
  MIC: > 2 µg/mL
[11]
  activity against anaerobic pathogens: substantial activity against anaerobic pathogens and in particular against Clostridium species
[12]; Culture # 1756, Wilkins-Chalgren agar, 37° C., 48 hours
  MIC: > 2 µg/mL
[12]; Culture # 1757
  MIC: > 2 µg/mL
[12]; Culture # 1758
  MIC: > 2 µg/mL
[12]; Culture # 1999
  MIC: > 2 µg/mL
[13]; Culture # 1764
  MIC: > 2 µg/mL
[13]; Culture # 1765
  MIC: > 2 µg/mL
[13]; Culture # 1766
  MIC: > 2 µg/mL
[14]; Culture # 1671
  MIC: > 100 µg/mL
[14]; const., Culture # 1672
  MIC: 25 µg/mL (≈ 23 µM)
[14]; inducible, Culture # 2548
  MIC: 25 µg/mL (≈ 23 µM)
[15]; Culture # 1662, brain heart infusion agar, 37° C., 20 hours
  MIC: 100 µg/mL (≈ 92.1 µM)
[15]; Culture # 1664
  MIC: 50 µg/mL (≈ 46 µM)
[15]; Culture # 1690
  MIC: 100 µg/mL (≈ 92.1 µM)
[15]; Culture # 2124
  MIC: > 100 µg/mL
[15]; Culture # 2130
  MIC: > 100 µg/mL
[15]; Culture # 2498
  MIC: > 100 µg/mL
[15]; cipro res., Culture # 3384
  MIC: 100 µg/mL (≈ 92.1 µM)
[16]
  MIC: > 100 µg/mL
[17]; Culture # 1679
  MIC: > 100 µg/mL
[17]; Culture # 1680
  MIC: > 100 µg/mL
[17]; Culture # 1681
  MIC: > 100 µg/mL
[17]; Culture # 1682
  MIC: 100 µg/mL (≈ 92.1 µM)
[17]; cipro R, Culture # 1919
  MIC: > 100 µg/mL
[17]; cipro R, Culture # 1920
  MIC: > 100 µg/mL
[18]
  MIC: > 100 µg/mL
[19]
  MIC: > 2 µg/mL
[20]
  MIC: > 2 µg/mL
[21]; Culture # 2493
  MIC: 0.1 µg/mL (≈ 0.0921 µM)
[21]; Culture # 2517
  MIC: 0.1 µg/mL (≈ 0.0921 µM)
[22]
  MIC: > 100 µg/mL
[23]
  MIC: > 2 µg/mL
[24]
  MIC: 0.39 µg/mL (≈ 0.359 µM)
[25]
  MIC: > 100 µg/mL
[26]
  MIC: > 2 µg/mL
[27]; 1 mg/kg
  body mass: maintained body mass closest to that of non-infected controls
[27]; 1 mg/kg/day
  % Weight change, Day 22: 154%
  % Mortality: 20%
[27]; 10 mg/kg/day
  % Weight change, Day 22: 140%
  % Mortality: 60%
[27]; Table 3
  treatment of antibiotic-associated colitis: effectively treat an antibiotic-associated colitis
[27]; versus untreated infected controls or vancomycin
  survival rate: higher survival rate than either untreated infected controls or in hamsters treated with vancomycin
[28]
  MIC: > 100 µg/mL
[29]
  MIC: > 2 µg/mL
[30]
  MIC: > 2 µg/mL
